“And” between values parts separate entries of the source, which are not always exact repeats. Equal entries are not always repeated.
Tests used:
[1] = tested on: osteopontin; experiment: Assay B: osteopontin immunohistochemistry in the heart; assay type: in vivo, Male Sprague Dawley rats; settings: aldosterone-infused rats, eplerenone 100 mpk, increased dietary potassium group
Procedure: Assay B: In Vivo Aldosterone Infusion Model Male Sprague Dawley rats (n=39; BW=250 g) 2. Aldosterone (0.75 mg/hr, sc via alzet minipump) 2. […] Determination of osteopontin and COX-2 was performed by quantitative RT-PCR (Taqman). Osteopontin was also identified in the heart by immunohistochemistry.

[2] = tested on: Collagen I; experiment: Assay C: Collagen I mRNA by TaqMan RT-PCR; assay type: in vivo, Male Sprague-Dawley rats; settings: for Collagen type-I message: at 30 days, compared to vehicle + salt controls; for Collagen-I (AU): collagen type I mRNA relative to cyclophilin, eplerenone dose 100 mg/kg/day
Procedure: The procedure of Assay B was expanded upon in a further study. […] Myocardial tissue from animals in each treatment group was examined after 7, 14, or 30 days of treatment.
Potassium chloride supplementation was added to the saline solution in order to prevent the potential hypokalemia associated with aldosterone excess.
At the time of the surgery, an Alzet 2002 osmotic minipump (Alza Corp., Palo Alto, Calif.) containing either vehicle (9% ethanol/87% propylene glycol/4% dH2O) or 1.0 mg/mL d-aldosterone (Sigma Chemical, St. Louis, Mo.) was inserted subcutaneously at the nape of the neck. Aldosterone was administered at a dose of 0.75 µg/hour. […] Animals were sacrificed from each group (n=8-13) after 7, 14, or 30 days of treatment.
The fluorogenic 5′-nuclease assay (TaqMan PCR) using Applied Biosystems' 7700 Sequence Detection System (Applied Biosystems, Foster City, Calif.) allowed for real time detection/quantitation of a specific gene by monitoring the increase in fluorescence of a gene-specific, dye-labeled oligonucleotide probe. Probes for target and reference genes were labeled at the 5′-end with a 6-carboxyfluorescein (6FAM) reporter dye and at the 3′-end with a 6-carboxy-N,N,N′,N′-tetramethylrhodamine (TAMRA) quencher dye. When the probe was annealed to the target gene, fluorescence of 6FAM was prevented by the close proximity of TAMRA. The exonuclease activity of Taq polymerase released the dyes from the oligonucleotide probe by displacing the probe from the target sequence resulting in fluorescence excitation in direct proportion to the amount of target message present. Data analysis was performed using the Sequence Detection System software from Applied Biosystems.
Primers and probes were designed using Oligo Primer Analysis Software, Version 5.0 (National Biosciences Inc. (NBI)-Wojciech Rychlik, Cascade, Colo.). Primers were synthesized by Life Technologies (Grand Island, N.Y.) and probes were synthesized by Applied Biosystems. Primer/probe sets were designed from known sequences of rat genes to be analyzed. All target gene values were normalized to a reference gene, constitutively expressed cyclophilin. Primer/probe sets sequences can be found in Table 8
RNA was extracted from frozen (−70° C.) left ventricle (LV) tissue (approximately 10-20 mg) using 1.5 mL RNA-STAT 60 according to manufacturer's instructions (Leedo Medical Laboratories, Inc., Houston, Tex.). Briefly, tissues were homogenized using a tissue homogenizer equipped with a 5 mm probe (Ultra-Turrax T8 Homogenizer, IKA Works, Inc. Wilmington, N.C.). Following homogenization, an equal volume of molecular grade chloroform (Sigma Chemical Co., St. Louis, Mo.) was incubated with periodic mixing for 10 min at room temperature. Samples were centrifuged at 12,000 g for 10 min and RNA was precipitated from the top layer by adding an equal volume of molecular grade isopropanol (Sigma Chemical Co.) followed by an overnight incubation at −80° C. RNA was pelleted by centrifugation at 12,000 g, washed with 75% ethanol, and solubilized in nuclease-free water (Promega, Madison, Wis.).
Double-stranded cDNA was synthesized by adding 400 ng RNA (4 uL) to a final volume of 20 uL containing 15% nuclease-free water (Promega, Madison, Wis.), 1×RT Buffer (Life Technologies, Grand Island, N.Y.), 10 mM DTT (Life Technologies), 0.5 mM each of dATP, dTTP, dGTP, dCTP (PE Biosystems, Foster City, Calif.), 2.5 μM Oligo d(T)15 (Oligo Therapeutics, Inc., Wilsonville, Oreg.), 40 units RNAsin (Promega), and 200 units SuperScript II Reverse Transcriptase (Life Technologies). The reactions were performed in thin-walled reaction tubes with caps (Applied Biosystems) to ensure accurate reaction temperatures.

[3] = mean ± SEM after 7 days of treatment
[4] = mean ± SEM after 14 days of treatment
[5] = mean ± SEM after 30 days of treatment
[6] = group mean, data used for Table 15 (14 days of treatment)
[7] = group mean, data used for Table 16 (30 days of treatment)

Row | Structure (SMILES) | Osteopontin expression in the heart (immunostaining) [1] | Collagen type-I message [2] | Collagen-I (AU) [2, 3] | Collagen-I (AU) [2, 4] | Collagen-I (AU) [2, 5] | Collagen-I mRNA (AU) [2, 6] | Collagen-I mRNA (AU) [2, 7] | Collagen-I mRNA (AU) ([2]; individual rats, data used for Table 15 (14 days of treatment), incl. rat marked * excluded from statistics, listed as Aldosterone + salt) | Collagen-I mRNA (AU) ([2]; individual rats, data used for Table 16 (30 days of treatment), incl. rat marked * excluded from statistics, listed as Aldosterone + salt) | Osteopontin expression in the heart (immunostaining) ([1]; listed as eplerenone) | Collagen-I mRNA (AU) ([2]; individual rats, data used for Table 15 (14 days of treatment), incl. rat marked * excluded from statistics, listed as Eplerenone + aldosterone + salt) | Collagen-I mRNA (AU) ([2]; individual rats, data used for Table 16 (30 days of treatment), incl. rat marked * excluded from statistics, listed as Eplerenone + aldosterone + salt)
1 | C[C@]12CCC(=O)C=C1CC[C@@H]1[C@@H]2[C@@H](O)C[C@]2(C=O)[C@@H](C(=O)CO)CC[C@@H]12 [Aldosterone] | clearly identified in the media of coronary arteries | modest increase | 1.36 ± 0.14 AU | 1.33 ± 0.24 AU | 2.29 ± 0.47 AU | 1.33 AU | 2.29 AU | 1.15 AU and 2.31 AU and 0.25 AU and 1.89 AU and 2.03 AU and 1.00 AU and 1.20 AU and 1.70 AU and 0.43 AU and 2.69 AU | 2.20 AU and 2.02 AU (2×) and 5.88 AU and 1.05 AU and 1.32 AU and 1.98 AU and 1.63 AU and 2.54 AU | – | – | –
2 | COC(=O)[C@@H]1CC2=CC(=O)CC[C@]2(C)[C@@]23O[C@@H]2C[C@@]2(C)[C@@H](CC[C@@]24CCC(=O)O4)[C@H]13 [Eplerenone] | prevented the expression of osteopontin | modest increase | 0.85 ± 0.15 AU | 1.39 ± 0.21 AU | 2.53 ± 0.20 AU | 1.39 AU | 2.53 AU | – | – | prevention | 0.86 AU (2×) and 0.90 AU and 1.65 AU and 1.14 AU and 1.44 AU and 0.50 AU and 1.24 AU and 1.69 AU and 2.03 AU and 3.02 AU | 1.89 AU and 1.54 AU and 2.65 AU (2×) and 1.97 AU and 2.98 AU and 2.90 AU and 2.88 AU and 3.35 AU and 2.01 AU

Reference: patent US6716829B2, “Aldosterone antagonist and cyclooxygenase-2 inhibitor combination therapy to prevent or treat inflammation-related cardiovascular disorders” (Pharmacia Corporation, priority 2000, dated 2004)
